Holding throughout (type): functional
What all share (conditions): 336 h

Test [1] concerns Mycobacterium tuberculosis. The experiment in a line: Antitubercular activity against rifampicin-resistant Mycobacterium tuberculosis after 14 days by turbidimetric assay.
The subject of test [2] is Mycobacterium tuberculosis. Put plainly: Antitubercular activity against pyrazinamide-resistant Mycobacterium tuberculosis after 14 days by turbidimetric assay.
The test system of test [3] is Mycobacterium tuberculosis. The experiment in a line: Antitubercular activity against Beijing W multidrug resistant Mycobacterium tuberculosis after 14 days by turbidimetric assay.
Test [4] deals with Mycobacterium tuberculosis. The experiment in a line: Antitubercular activity against isoniazid-resistant Mycobacterium tuberculosis after 14 days by turbidimetric assay.
In test [5] the test system is Mycobacterium tuberculosis. The experiment in a line: Antitubercular activity against streptomycin-resistant Mycobacterium tuberculosis after 14 days by turbidimetric assay.

The text below walks through data of ChEMBL document CHEMBL1139242, “Peptide deformylase inhibitors of Mycobacterium tuberculosis: synthesis, structural investigations, and biological results” (Bioorg Med Chem Lett, 2008).

≈ marks a conversion by molar mass, not a printed value.

For `CCCC[C@H](CN(O)C=O)C(=O)N1CCC[C@H]1c1nc2ccccc2o1`, the MIC in test [1] came out at 0.6 µg/mL (≈ 1.67 µM); in test [2] it was 0.25 µg/mL (≈ 0.696 µM); in test [3], 0.06 µg/mL (≈ 0.167 µM); in test [4], 0.06 µg/mL (≈ 0.167 µM); in test [5] it was 0.5 µg/mL (≈ 1.39 µM).
On to `CCCC[C@H](CN(O)C=O)C(=O)N1CCC[C@H]1C(=O)Nc1ccccn1`, for which the MIC in test [1] amounted to 0.25 µg/mL (≈ 0.69 µM); in test [2] it was 0.5 µg/mL (≈ 1.38 µM); in test [3], 0.125 µg/mL (≈ 0.345 µM); in test [4], 0.1 µg/mL (≈ 0.276 µM); in test [5] it was 0.5 µg/mL (≈ 1.38 µM).
On to `CCCC[C@H](CN(O)C=O)C(=O)N1CCC[C@H]1c1nc2ccccc2[nH]1`, for which the MIC stood at 0.125 µg/mL (≈ 0.349 µM) in test [1]; 0.25 µg/mL (≈ 0.697 µM) in test [2]; 0.03 µg/mL (≈ 0.0837 µM) in test [3]; 0.03 µg/mL (≈ 0.0837 µM) in test [4]; 0.2 µg/mL (≈ 0.558 µM) in test [5].

In general, MIC refers to the least concentration at which growth counts as inhibited. Low values mean inhibition by little substance, high ones a need for much substance.
